By Ki is commonly meant a dissociation constant, usually derived from enzyme kinetics or from competition with a known ligand. Read a low Ki as tighter binding.

Read-outs that look alike come from different tables or passages of the source.

Data on 29 compounds can be found in patent US5688774A (priority 1995, dated 1997).

For one test, the target named is T1, rat brain A1 receptor (Rattus norvegicus, UniProt P25099).
T1 construct: Rat cerebral cortical and striatal membranes were prepared; from tissue; host or cells: rat brain membranes (cerebral cortical)
T1 sequence (P25099 1-326): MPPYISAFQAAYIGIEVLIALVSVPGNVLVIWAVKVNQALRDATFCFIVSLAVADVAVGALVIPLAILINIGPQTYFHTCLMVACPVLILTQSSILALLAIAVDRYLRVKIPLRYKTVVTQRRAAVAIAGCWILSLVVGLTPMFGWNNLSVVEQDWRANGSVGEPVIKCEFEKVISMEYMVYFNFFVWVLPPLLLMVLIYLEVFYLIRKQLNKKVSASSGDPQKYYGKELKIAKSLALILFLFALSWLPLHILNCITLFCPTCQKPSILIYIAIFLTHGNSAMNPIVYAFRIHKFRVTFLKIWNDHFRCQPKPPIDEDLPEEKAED
The test is described as follows: Displacement of [^3 H]PIA binding at A1 receptors. The note with it: for % Inhibition (A1): at 10^-4, rat brain.

In the next test the target is T2, rat brain A2a receptor (Rattus norvegicus, UniProt P30543).
T2 construct: A2 receptors from rat striatal membranes; from tissue; host or cells: rat striatal membranes
The test is described as follows: Displacement of [^3 H]CGS 21680 binding at A2a receptors. The method, then: Rat cerebral cortical and striatal membranes were prepared (Jacobson et al., J. Med. Chem., 35, 4143-4149 (1992)) and treated with ADA for 30 min at 37° C. prior to storage at -70° C.
The stock solutions were diluted with DMSO to a concentration of ≤0.1 mM prior to addition to the aqueous medium. The final concentration of DMSO in the assay medium was generally 2%.
At least six different concentrations spanning three orders of magnitude, adjusted appropriately for the IC50 of each compound, were used. […]. Pharmacol., 22, 3099-3108 (1973)).

Where [1] appears, read: [^3 H]PIA, rat brain membranes, Ki ± S.E.M., n = 3-6.
The mark [2] stands for this setting: [^3 H]CGS 21680, rat brain membranes, Ki ± S.E.M., n = 3-6.
Where [3] appears, read: at 10^-4, [^3 H]CGS 21680, rat brain.

T2 sequence (P30543 whole entry): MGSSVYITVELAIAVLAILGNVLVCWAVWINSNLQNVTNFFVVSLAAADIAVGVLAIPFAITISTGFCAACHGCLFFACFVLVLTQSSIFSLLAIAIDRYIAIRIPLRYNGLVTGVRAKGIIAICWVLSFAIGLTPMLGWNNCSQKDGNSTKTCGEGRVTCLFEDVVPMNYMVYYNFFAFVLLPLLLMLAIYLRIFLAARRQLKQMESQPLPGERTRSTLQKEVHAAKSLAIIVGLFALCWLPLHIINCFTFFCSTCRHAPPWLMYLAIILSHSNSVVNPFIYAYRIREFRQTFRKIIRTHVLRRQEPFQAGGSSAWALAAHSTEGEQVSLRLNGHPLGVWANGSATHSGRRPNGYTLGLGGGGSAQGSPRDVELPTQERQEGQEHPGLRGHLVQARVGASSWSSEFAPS

With 2-Chloro-9-(β-arabinosyl)adenine, the figures for the Ki at rat brain A1 receptor (setting [1]) and on rat brain A2a receptor (setting [2]) were 24.2 ± 7.9 µM and 90 ± 12.7 µM, respectively. The like results for 9-(β-talosyl)adenine were, in that order, 150 ± 28 µM and 54.7 ± 3.1 µM. In the case of `CNC(=O)[C@H]1C[C@@H](n2cnc3c(NCc4cccc(I)c4)ncnc32)[C@H](O)[C@@H]1O` (relative stereo) [Compound 61, (±)-9-[2α,3β-Dihydroxy-4β-(N-Methylcarbamoyl)Cyclopent-1β-yl)]-N^6-(3-Iodobenzyl)-adenine], the “% Inhibition (A2a)” value on rat brain A2a receptor (setting [3]) turned out to be 28 ± 5%. In the case of `CNC(=O)[C@H]1O[C@@H](n2cnc3c(NCc4cccc(I)c4)nc(Cl)nc32)[C@H](OC(=O)c2ccccc2)[C@@H]1OC(=O)c1ccccc1` [2-Chloro-9-(2',3'-dibenzoyl-β-D-5-methyl-ribofuronamido)-N^6-(3-iodobenzyl)adenine], the “% Inhibition (A1)” value at rat brain A1 receptor ([^3 H]PIA) stood at 21%. The “% Inhibition (A2a)” value on rat brain A2a receptor was found to be 7%. `Cn1cnc2c(NCc3cccc(I)c3)ncnc21` [Compound 3, N^6-(3-Iodobenzyl)-9-Methyladenine]: the results for the Ki on rat brain A1 receptor (setting [1]) and at rat brain A2a receptor (setting [2]) were 5.73 ± 1.88 µM and 2.23 ± 1.33 µM, respectively. The like results for `Cn1cnc2c(NCc3cccc(I)c3)nc(Cl)nc21` [Compound 6, 2-Chloro-N^6-(3-Iodobenzyl)-9-Methyladenine] were, in that order, 0.45 ± 0.11 µM and 2.7 ± 0.56 µM. `Cn1cnc2c(NCc3cccc(I)c3)nc(N)nc21` [Compound 9, 2-Amino-N^6-(3-iodobenzyl)-9-methyladenine]: the Ki at rat brain A1 receptor (setting [1]) is 5.57 ± 1.32 µM; at rat brain A2a receptor (setting [2]), 3.22 ± 1.52 µM. In the same order, the values of `Cn1cnc2c(NCc3cccc(I)c3)nc(NN)nc21` [Compound 10, 2-Hydrazido-N^6-(3-Iodobenzyl)-9-Methyladenine] are 5.44 ± 0.05 µM and 19.6 ± 7.8 µM. In the same order, the values of `CNc1nc(NCc2cccc(I)c2)c2ncn(C)c2n1` [Compound 11, N^6-(3-Iodobenzyl)-2-Methylamino-9-Methyladenine] are 0.648 ± 0.102 µM and 3.56 ± 0.84 µM.

In the case of `CN(C)c1nc(NCc2cccc(I)c2)c2ncn(C)c2n1` [Compound 12, 2-Dimethylamino-N^6-(3-Iodobenzyl)-9-Methyladenine], the Ki on rat brain A1 receptor (setting [1]) was 1.48 ± 0.12 µM; at rat brain A2a receptor (setting [2]), 9.89 ± 3.01 µM. Regarding `CCCNc1nc(NCc2cccc(I)c2)c2ncn(C)c2n1` [Compound 13, N^6-(3 -Iodobenzyl)-9-Methyl-2-Propylaminoadenine], the inhibition constant Ki on rat brain A1 receptor came out at 0.33 ± 0.08 µM; on rat brain A2a receptor, 1.72 ± 0.7 µM. In the case of `CCCCCCNc1nc(NCc2cccc(I)c2)c2ncn(C)c2n1` [Compound 14, 2-Hexylamino-N^6-(3-Iodobenzyl)-9-Methyladenine], the Ki on rat brain A1 receptor was determined as 4.48 ± 0.82 µM. For the same compound, the “% Inhibition (A2a)” value on rat brain A2a receptor is on record as 11 ± 4%.

For `COc1nc(NCc2cccc(I)c2)c2ncn(C)c2n1` [Compound 15, N^6-(3-Iodobenzyl)-2-Methoxy-9-Methyladenine], the Ki on rat brain A1 receptor (setting [1]) came out at 0.5 ± 0.21 µM; at rat brain A2a receptor (setting [2]), 1.24 ± 0.11 µM.

Take `Cn1cnc2c(NCc3cccc(I)c3)nc(Sc3ccncc3)nc21` [Compound 17, N^6-(3-Iodobenzyl)-9-Methyl-2-(4-Pyridylthio)adenine]: the inhibition constant Ki on rat brain A1 receptor (setting [1]) was 0.84 ± 0.19 µM; at rat brain A2a receptor (setting [2]), 11.6 ± 4 µM. In the same order, the values of `OCCn1cnc2c(NCc3cccc(I)c3)ncnc21` [Compound 18, N^6-(3-Iodobenzyl)-9-Hydroxyethyladenine] are 22.9 ± 3.7 µM and 15.1 ± 1.6 µM. The like results for `OC[C@@H](O)Cn1cnc2c(NCc3cccc(I)c3)ncnc21` [Compound 19, R--N^6-(3-Iodobenzyl)-9-(2,3-Dihydroxypropyl)adenine] were, in that order, 13.8 ± 2.2 µM and 18.9 ± 1.9 µM. In the same order, the values of `OC[C@H](O)Cn1cnc2c(NCc3cccc(I)c3)ncnc21` [Compound 20, S--N^6-(3-Iodobenzyl)-9-(2,3-Dihydroxypropyl)adenine] are 19.1 ± 2.2 µM and 41.8 ± 12.5 µM.

For the compound `O=C(O)Cn1cnc2c(NCc3cccc(I)c3)ncnc21` [Compound 21, N^6-(3-Iodobenzyladenin-9-yl)acetic Acid], at rat brain A1 receptor ([^3 H]PIA), the “% Inhibition (A1)” value came to 17%. Besides, the “% Inhibition (A2a)” value at rat brain A2a receptor stood at 9%.

As for `N#CCCCn1cnc2c(NCc3cccc(I)c3)ncnc21` [Compound 22, N^6-(3-Iodobenzyl)-9-(3-Cyanopropyl)adenine], the inhibition constant Ki is 6.03 ± 1.37 µM on rat brain A1 receptor (setting [1]) and 18.7 ± 5.8 µM on rat brain A2a receptor (setting [2]). In the case of `CNc1nc(NCc2cccc(I)c2)c2ncn([C@@H]3OC[C@@H](O)[C@H]3O)c2n1` [Compound 29, 9-(β-D-Erythrofuranoside)-2-Methylamino-N^6-(3-Iodobenzyl)adenine], the inhibitory constant (Ki) amounted to 0.66 ± 0.01 µM on rat brain A1 receptor and 3.39 ± 0.29 µM at rat brain A2a receptor. In the same order, the values of `Clc1nc(NCc2cccc(I)c2)c2ncn(C3CCCO3)c2n1` (stereo not shown) [Compound 30, 2-Chloro-N-(3-Iodobenzyl)-9-(2-Tetrahydrofuryl)-9H-Purin-6-Amine] are 0.174 ± 0.017 µM and 4.12 ± 0.18 µM. For `CNC(=O)[C@@H]1C[C@@H](OS(C)(=O)=O)[C@H](n2cnc3c(NCc4cccc(I)c4)nc(Cl)nc32)O1` [Compound 41, 2-Chloro-9-(3-Deoxy-2-Methanesulfonyl-β-D-5-Methyl-Ribofuronamido)-N^6-(3-Iodobenzyl)adenine], the figures for the inhibitory constant (Ki) at rat brain A1 receptor (setting [1]) and at rat brain A2a receptor (setting [2]) were 1.29 ± 0.08 µM and 41.9 ± 6.2 µM, respectively. With `CNC(=O)[C@@H]1C[C@H](N)[C@H](n2cnc3c(NCc4cccc(I)c4)nc(Cl)nc32)O1` [Compound 43, 2-Chloro-9-(2'-Amino-2',3'-dideoxy-β-D-5'-methyl-Arabinofuronamido)N^6-(3-Iodobenzyl)adenine], the Ki at rat brain A1 receptor (setting [1]) was 6.69 ± 0.74 µM. For the same compound, the “% Inhibition (A2a)” value on rat brain A2a receptor (setting [3]) amounted to 2%. Compound `CNC(=O)[C@H]1O[C@@H](n2cnc3c(NCc4cccc(NC(=O)[C@@H]5CCCN5)c4)ncnc32)[C@H](O)[C@@H]1O` [Compound 65, N^6-[3-(L-Prolylamino)Benzyl]Adenosine-5'-N-Methyluronamide] gave a Ki at rat brain A2a receptor of 0.215 ± 0.054 µM. Regarding `CNC(=O)[C@H]1O[C@@H](n2cnc3c(NCc4cccc(NC(=O)CCN)c4)ncnc32)[C@H](O)[C@@H]1O` [Compound 66, N^6-[3(β-Alanylamino)Benzyl]Adenosine-5'-Methyluronamide], on rat brain A2a receptor, the affinity corresponds to a Ki of 0.144 ± 0.04 µM.

On rat brain A2a receptor, `CNC(=O)[C@H]1O[C@@H](n2cnc3c(NCc4cccc(NC(=O)CCNC(=O)OC(C)(C)C)c4)ncnc32)[C@H](O)[C@@H]1O` [Compound 67, N^6-[3-(N-6-Boc-β-Alanylamino)Benzyl]Adenosine-5'-Methyluronamide] gave a Ki of 1.96 µM. On the same count and under the same terms, the result for `CNC(=O)[C@H]1O[C@@H](n2cnc3c(NNc4ccccc4)ncnc32)[C@H](O)[C@@H]1O` [Compound 70, 6-(N'-phenylhydrazinyl)Purine-9-β-Ribofuranoside-5'-N-Methyluronamide] reads 7.16 µM. `CNC(=O)[C@H]1O[C@@H](n2cnc3c(NOc4ccccc4)ncnc32)[C@H](O)[C@@H]1O` [Compound 71] came in with an inhibition constant Ki at rat brain A2a receptor of 66.3 µM. Take `CNC(=O)[C@H]1O[C@@H](n2cnc3c(NCc4ccco4)ncnc32)[C@H](O)[C@@H]1O` [Compound 74, 1-(6-Furfurylamino-9H-Purin-9-yl)-1-Deoxy-N-Methyl-β-D-Ribofuranosiduronamide]: the Ki on rat brain A1 receptor (setting [1]) was 8.61 ± 2.55 µM; on rat brain A2a receptor (setting [2]), 6.22 ± 2.71 µM.
